Tests used:
Assay type in all cases: cell-based
[1] = system: Propionibacterium acnes ATCC 6919; assay: MIC, agar medium dilution method (Trypticase Soy Agar); conditions: (b) Propionibacterium acnes ATCC 6919, 37° C., 72 hours
Procedure: (§1) Test for Antibacterial Ability (Measurement of Minimum Inhibitory Concentration (MIC) Using an Agar Medium Dilution Method) The samples were dissolved in ethanol to prepare a serial twofold dilution stage and 100 μL of each was added to 10 mL of a sterilized agar medium, which was then stirred sufficiently, then transferred to a 9-cm-diameter Petri dish and solidified at ambient temperature. 5 μL of a diluted test bacteria solution was implanted in the Petri dish and cultured at 37° C. for 72 hours. After the culturing was finished, the growth state of the medium in this Petri dish was compared with that in a Petri dish (blank) containing no sample and the concentration of the sample in which the growth of bacteria was not seen was defined as minimum inhibitory concentration (MIC). (b) Propionibacterium acnes ATCC 6919 (c) Bacteriodes fragilis GAI 5560 • Trypticase Soy Agar (BBL) in these cases

[2] = system: Staphylococcus epidermides JCM 2414; assay: MIC, agar medium dilution method (Mueller Hinton medium); conditions: (f) Staphylococcus epidermides, 37° C., 72 hours
Procedure: as §1, with “(f) Staphylococcus epidermides JCM 2414 (g) Corynebacterium minutissimum IFO 15361” for “(b) Propionibacterium acnes ATCC 6919 (c) Bacteriodes fragilis GAI 5560”, “Mueller Hinton medium (Difco)” for “Trypticase Soy Agar (BBL)”, “cases Sample” for “cases”

[3] = system: Corynebacterium minutissimum IFO 15361; assay: as above; conditions: (g) Corynebacterium minutissimum, 37° C., 72 hours
Procedure: as §1, with “(g) Corynebacterium minutissimum IFO 15361” for “(b) Propionibacterium acnes ATCC 6919 (c) Bacteriodes fragilis GAI 5560”, “Mueller Hinton medium (Difco)” for “Trypticase Soy Agar (BBL)”, “cases Sample” for “cases”

[4] = system: Malassezia furfur IFO 0656; assay: as above; conditions: (e) Malassezia furfur, 37° C., 72 hours
Procedure: as §1, with “(e) Malassezia furfur IFO 0656 (g) Corynebacterium minutissimum IFO 15361” for “(b) Propionibacterium acnes ATCC 6919 (c) Bacteriodes fragilis GAI 5560”, “Mueller Hinton medium (Difco)” for “Trypticase Soy Agar (BBL)”, “cases Sample” for “cases”

[5] = system: Staphylococcus aureus 209P IAM 12082; assay: MIC, agar medium dilution method (Mueller Hinton medium), qualification test method 1; conditions: method 1, agar, 37° C., 72 hours
Procedure: as §1, with “Method) Measurement of Minimum Inhibitory Concentration (MIC) Using an Agar Medium Dilution Method” for “Method)”, “samples shown below” for “samples”, “medium (Mueller Hinton medium (Difco)),” for “medium,”, “(MIC).” for “(MIC). (b) Propionibacterium acnes ATCC 6919 (c) Bacteriodes fragilis GAI 5560 • Trypticase Soy Agar (BBL) in these cases”

[6] = system: Bacillus subtilis PCI 219 IFO 3134; assay: as above; conditions: method 1, agar, 37° C., 72 hours
Procedure: as §1, with “Method) Measurement of Minimum Inhibitory Concentration (MIC) Using an Agar Medium Dilution Method” for “Method)”, “samples shown below” for “samples”, “medium (Mueller Hinton medium (Difco)),” for “medium,”, “(MIC).” for “(MIC). (b) Propionibacterium acnes ATCC 6919 (c) Bacteriodes fragilis GAI 5560 • Trypticase Soy Agar (BBL) in these cases”

[7] = system: Staphylococcus aureus ATCC 6538; assay: as above; conditions: method 1, agar, 37° C., 72 hours
Procedure: as §1, with “Method) Measurement of Minimum Inhibitory Concentration (MIC) Using an Agar Medium Dilution Method” for “Method)”, “samples shown below” for “samples”, “medium (Mueller Hinton medium (Difco)),” for “medium,”, “(MIC).” for “(MIC). (b) Propionibacterium acnes ATCC 6919 (c) Bacteriodes fragilis GAI 5560 • Trypticase Soy Agar (BBL) in these cases”

[8] = system: Corynebacterium xerosis JCM 1324; assay: MIC, agar medium dilution method (Mueller Hinton medium); conditions: (d) Corynebacterium xerosis, 37° C., 72 hours
Procedure: as §1, with “(d) Corynebacterium xerosis JCM 1324 (g) Corynebacterium minutissimum IFO 15361” for “(b) Propionibacterium acnes ATCC 6919 (c) Bacteriodes fragilis GAI 5560”, “Mueller Hinton medium (Difco)” for “Trypticase Soy Agar (BBL)”, “cases Sample” for “cases”

[9] = system: Bacillus subtilis PCI 219; assay: MIC, agar medium dilution method; conditions: 37° C., 72 hours
Procedure: as §1, with “(MIC).” for “(MIC). (b) Propionibacterium acnes ATCC 6919 (c) Bacteriodes fragilis GAI 5560 • Trypticase Soy Agar (BBL) in these cases”

[10] = system: Actionmyces viscosus JCM 8352; assay: MIC, agar medium dilution method (Trypticase Soy Agar); conditions: (c) Actionmyces viscosus, 37° C., 72 hours
Procedure: (§2) Test for Antibacterial Ability (Measurement of Minimum Inhibitory Concentration (MIC) Using an Agar Medium Dilution Method)
(§3) The samples shown below were dissolved in ethanol to prepare a serial twofold dilution stage and 100 μL of each was added to 10 mL of a sterilized agar medium (Trypticase Soy Agar (BBL)), which was then stirred sufficiently, then transferred to a 9-cm-diameter Petri dish and solidified at ambient temperature. 5 μL of a diluted test bacteria (shown below) solution was implanted in the Petri dish and cultured at 37° C. for 72 hours. After the culturing was finished, the growth state of the medium in this Petri dish was compared with that in a Petri dish (blank) containing no sample and the concentration of the sample in which the growth of bacteria was not seen was defined as MIC.

[11] = system: Prevotella intermedia JCM 6322; assay: as above; conditions: (e) Prevotella intermedia, 37° C., 72 hours
Procedure: as §2, §3

[12] = system: Porphyromonas gingivalis JCM 8525; assay: as above; conditions: (f) Porphyromonas gingivalis, 37° C., 72 hours
Procedure: as §2, §3

[13] = system: Actinomyces naeslundii JCM 8350; assay: as above; conditions: (b) Actinomyces naeslundii, 37° C., 72 hours
Procedure: as §2, §3

[14] = system: Streptococcus mutans JCM 5175; assay: as above; conditions: (a) Streptococcus mutans, 37° C., 72 hours
Procedure: as §2, §3

[15] = system: Fusobacterium nuclestum JCM 6328; assay: as above; conditions: (d) Fusobacterium nuclestum, 37° C., 72 hours
Procedure: as §2, §3

[16] = system: Bacteriodes fragilis GAI 5560; assay: as above; conditions: (c) Bacteriodes fragilis, 37° C., 72 hours
Procedure: as §1, with “(MIC).” for “(MIC). (b) Propionibacterium acnes ATCC 6919”

[17] = system: Propionibacterium acnes JCM 6473; assay: as above; conditions: (a) Propionibacterium acnes JCM 6473, 37° C., 72 hours
Procedure: as §1, with “(a)” for “(b)”, “JCM 6473” for “ATCC 6919”

[18] = system: Staphylococcus aureus IAM12082; assay: MIC and MBC, liquid medium dilution method (NYG medium), qualification method 2; conditions: method 2, liquid medium
Procedure: (§4) Measurements of MIC and Minimum Bactericidal Concentration (MBC) by Using a Liquid Medium Dilution Method
(§5) The serial twofold dilution solution of the sample is prepared in the same manner as in the agar medium dilution method. 30 μL of the sample solution having each concentration is added to 3 mL of a liquid medium (NYG medium), to which is further added 60 μL of a test bacteria solution and the medium is cultured at 30° C. for 48 hours.
(§6) A change of the turbidity of the medium is measured using a wavelength of 660 nm to find MIC. The media 60 μL each are taken out from a test tube in which no growth of the bacteria is found and implanted in 3 mL of a new medium and cultured for 48 hours. The minimum concentration at which no growth of the bacteria was observed is defined MBC.

[19] = system: Staphylococcus aureus ATCC6538; assay: as above; conditions: method 2, liquid medium
Procedure: as §4, §5, §6

Staphylococcus aureus = assay: Conclusion from the measurement of MBC (liquid medium dilution method); conditions: from the results of the measurement of MBC (Table 4)
Procedure: as §4, §5, §6

In the case of `CCCCOC(=O)c1ccc(O)cc1` [Sample C-2, Butylparabene], the “Minimum inhibitory concentration (MIC)” value [1] is reported as 100 ppm, the “Minimum inhibitory concentration (MIC)” value [2] is reported as 200 ppm and the “Minimum inhibitory concentration (MIC)” value [3] is reported as 200 ppm. The “Minimum inhibitory concentration (MIC)” value [4] was 100 ppm, the MIC [5] was 100 ppm and the MIC [6] was 200 ppm. For the same compound, the MIC [7] was 200 ppm, the “Minimum inhibitory concentration (MIC)” value [8] was 50 ppm and the “Minimum inhibitory concentration (MIC)” value [9] was 200 ppm. It also gave an MIC [10] of 100 ppm, an MIC [11] of 100 ppm and an MIC [12] of 50 ppm. The MIC [13] was 100 ppm, the MIC [14] was 200 ppm and the MIC [15] was 100 ppm. The “Minimum inhibitory concentration (MIC)” value [16] was 50 ppm and the “Minimum inhibitory concentration (MIC)” value [17] was 100 ppm.
`Oc1cc(Cl)ccc1Oc1ccc(Cl)cc1Cl` [Sample C-1, Trichlosane] was tested, and the MBC [18] was 0.977 ppm, the MIC ([18]; 30° C., 48 hours) was 0.244 ppm and the MBC [19] was 1.95 ppm. The MIC ([19]; 30° C., 48 hours) was 0.977 ppm, the MIC [10] was 3.1 ppm and the MIC [11] was 3.1 ppm. The MIC [12] was 3.1 ppm, the MIC [13] was 3.1 ppm and the MIC [14] was 6.3 ppm. For the same compound, the MIC [15] was 3.1 ppm and the “bactericidal or bacteriostatic action” value (Staphylococcus aureus) was “strong bactericidal activity”.

From patent publication US7060726B2, “Antibacterial agent” (Takasago International Corporation, priority 2001, dated 2006)
